Experimental data published in paper PMC4207660, “Identification and Characterization of Hundreds of Potent and Selective Inhibitors of Trypanosoma brucei Growth from a Kinase-Targeted Library Screening Campaign” (PLoS Neglected Tropical Diseases, 2014).
In brackets after ≈: the same amount, converted by molar mass.

What was measured:
BTK = BTK (Homo sapiens, UniProt Q06187); test: Human kinase selectivity screening: BTK; type: biochemical; details: read-out: BTK pIC50 values (converted)
Description: (§1) These kinases were chosen for general selectivity screening owing to their broad representation of the human kinome.

SYK = SYK (Homo sapiens, UniProt P43405); test: Human kinase selectivity screening: SYK; type: biochemical; details: read-out: SYK pIC50 values (converted)
Description: as §1

[1] = CLND kinetic solubility assay; type: physicochemical; details: phosphate buffered saline, pH 7.4, aqueous buffer, kinetic from dmso stock; Measured; read-out: Aq Sol
Experimental: 5 µL of 10 mM DMSO stock solution was diluted to 100 µL with pH 7.4 phosphate buffered saline, equilibrated for 1 hour at room temperature, filtered through Millipore MultiscreenHTS-PCF filter plates (MSSL BPC). The filtrate was quantified by suitably calibrated flow injection Chemi-Luminescent Nitrogen Detection.

IKK1 = biological target: T1, IKK1 (Homo sapiens, UniProt O15111); test: Human kinase selectivity screening: IKK1; type: biochemical; details: read-out: IKK1 pIC50 values (converted)
T1 sequence (O15111 1-745): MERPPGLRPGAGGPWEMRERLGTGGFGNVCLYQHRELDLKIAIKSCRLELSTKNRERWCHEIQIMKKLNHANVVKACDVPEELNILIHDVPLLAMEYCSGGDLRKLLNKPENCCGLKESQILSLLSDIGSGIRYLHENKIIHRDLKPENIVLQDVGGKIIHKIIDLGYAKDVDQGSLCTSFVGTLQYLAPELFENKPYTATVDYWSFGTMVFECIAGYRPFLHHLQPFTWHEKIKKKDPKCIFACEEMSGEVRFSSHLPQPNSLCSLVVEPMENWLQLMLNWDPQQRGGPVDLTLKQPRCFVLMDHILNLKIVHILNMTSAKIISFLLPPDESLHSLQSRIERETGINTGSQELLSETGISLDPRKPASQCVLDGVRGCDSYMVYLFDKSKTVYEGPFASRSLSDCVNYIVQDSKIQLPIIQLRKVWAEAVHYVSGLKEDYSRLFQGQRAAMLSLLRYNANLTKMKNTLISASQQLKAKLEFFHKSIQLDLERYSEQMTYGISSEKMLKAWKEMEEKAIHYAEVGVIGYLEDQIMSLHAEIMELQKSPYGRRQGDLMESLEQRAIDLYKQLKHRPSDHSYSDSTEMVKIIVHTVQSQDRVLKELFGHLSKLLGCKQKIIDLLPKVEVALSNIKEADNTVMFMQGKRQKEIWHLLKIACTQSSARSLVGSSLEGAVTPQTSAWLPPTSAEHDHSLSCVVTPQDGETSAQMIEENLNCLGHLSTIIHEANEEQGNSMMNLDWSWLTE
Description: as §1

JAK2 = JAK2 (Homo sapiens, UniProt O60674); test: Human kinase selectivity screening: JAK2; type: biochemical; details: read-out: JAK2 pIC50 values (converted)
Description: as §1

PI3KA = PI3KA (Homo sapiens, UniProt P42336); test: Human kinase selectivity screening: PI3KA; type: biochemical; details: read-out: PI3KA pIC50 values (converted)
Description: as §1

[2] = test system: T. brucei brucei parasites (Lister 427 strain); test: Dose response growth inhibition assay (resazurin, 72 h); type: cell-based; details: Trypanosoma brucei; read-out: T brucei pEC50 (converted)
ROCK1 = ROCK1 (Homo sapiens, UniProt Q13464); test: Human kinase selectivity screening: ROCK1; type: biochemical; details: read-out: ROCK1 pIC50 values (converted)
Description: as §1

Chain of BTK (Q06187 whole entry): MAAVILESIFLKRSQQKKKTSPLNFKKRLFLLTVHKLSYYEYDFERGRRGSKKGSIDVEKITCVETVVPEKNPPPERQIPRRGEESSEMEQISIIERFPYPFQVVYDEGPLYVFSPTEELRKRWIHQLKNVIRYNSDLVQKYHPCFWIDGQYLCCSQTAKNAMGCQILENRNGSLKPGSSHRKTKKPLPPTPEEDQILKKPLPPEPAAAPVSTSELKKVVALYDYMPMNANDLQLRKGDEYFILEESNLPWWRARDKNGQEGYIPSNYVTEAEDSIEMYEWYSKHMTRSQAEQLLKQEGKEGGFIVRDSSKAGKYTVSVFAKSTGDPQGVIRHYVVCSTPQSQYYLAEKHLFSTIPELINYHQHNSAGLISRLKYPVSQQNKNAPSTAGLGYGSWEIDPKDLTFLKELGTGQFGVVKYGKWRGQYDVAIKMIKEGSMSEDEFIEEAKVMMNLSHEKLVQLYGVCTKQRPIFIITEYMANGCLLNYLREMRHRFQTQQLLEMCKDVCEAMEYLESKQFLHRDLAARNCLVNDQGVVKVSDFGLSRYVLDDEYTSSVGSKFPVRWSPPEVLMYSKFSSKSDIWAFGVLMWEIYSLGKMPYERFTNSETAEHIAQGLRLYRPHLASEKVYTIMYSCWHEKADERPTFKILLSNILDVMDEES
Chain of JAK2 (O60674 whole entry): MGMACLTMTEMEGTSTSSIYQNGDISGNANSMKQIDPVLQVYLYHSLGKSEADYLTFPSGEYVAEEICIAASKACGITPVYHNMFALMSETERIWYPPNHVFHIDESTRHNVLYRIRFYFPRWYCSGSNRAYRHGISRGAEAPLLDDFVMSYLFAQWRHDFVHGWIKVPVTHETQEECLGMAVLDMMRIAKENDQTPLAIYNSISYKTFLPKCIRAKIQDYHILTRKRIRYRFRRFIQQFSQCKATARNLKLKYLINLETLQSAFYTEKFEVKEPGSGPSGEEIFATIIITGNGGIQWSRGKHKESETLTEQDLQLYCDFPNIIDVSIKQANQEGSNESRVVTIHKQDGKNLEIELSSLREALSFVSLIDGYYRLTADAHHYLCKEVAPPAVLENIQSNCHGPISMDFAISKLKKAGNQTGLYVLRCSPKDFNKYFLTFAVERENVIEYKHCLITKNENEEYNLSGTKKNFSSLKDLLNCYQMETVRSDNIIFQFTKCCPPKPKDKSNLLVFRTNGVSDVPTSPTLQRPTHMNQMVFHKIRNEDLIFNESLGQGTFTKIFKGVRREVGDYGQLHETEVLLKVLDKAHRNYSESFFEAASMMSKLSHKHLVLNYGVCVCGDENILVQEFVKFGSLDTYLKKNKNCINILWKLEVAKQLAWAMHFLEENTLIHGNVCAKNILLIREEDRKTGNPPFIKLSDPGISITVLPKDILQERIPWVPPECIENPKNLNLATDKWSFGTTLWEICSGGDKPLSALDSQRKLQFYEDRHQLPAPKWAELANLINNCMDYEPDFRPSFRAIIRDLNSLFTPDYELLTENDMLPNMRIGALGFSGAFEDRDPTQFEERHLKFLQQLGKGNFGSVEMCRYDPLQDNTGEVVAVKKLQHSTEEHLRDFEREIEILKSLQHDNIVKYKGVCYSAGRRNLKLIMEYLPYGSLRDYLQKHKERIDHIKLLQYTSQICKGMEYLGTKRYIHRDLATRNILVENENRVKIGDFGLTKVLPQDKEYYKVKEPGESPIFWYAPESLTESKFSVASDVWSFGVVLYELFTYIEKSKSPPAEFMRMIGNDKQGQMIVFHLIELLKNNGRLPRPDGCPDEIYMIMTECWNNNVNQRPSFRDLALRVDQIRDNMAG
Chain of PI3KA (P42336 whole entry): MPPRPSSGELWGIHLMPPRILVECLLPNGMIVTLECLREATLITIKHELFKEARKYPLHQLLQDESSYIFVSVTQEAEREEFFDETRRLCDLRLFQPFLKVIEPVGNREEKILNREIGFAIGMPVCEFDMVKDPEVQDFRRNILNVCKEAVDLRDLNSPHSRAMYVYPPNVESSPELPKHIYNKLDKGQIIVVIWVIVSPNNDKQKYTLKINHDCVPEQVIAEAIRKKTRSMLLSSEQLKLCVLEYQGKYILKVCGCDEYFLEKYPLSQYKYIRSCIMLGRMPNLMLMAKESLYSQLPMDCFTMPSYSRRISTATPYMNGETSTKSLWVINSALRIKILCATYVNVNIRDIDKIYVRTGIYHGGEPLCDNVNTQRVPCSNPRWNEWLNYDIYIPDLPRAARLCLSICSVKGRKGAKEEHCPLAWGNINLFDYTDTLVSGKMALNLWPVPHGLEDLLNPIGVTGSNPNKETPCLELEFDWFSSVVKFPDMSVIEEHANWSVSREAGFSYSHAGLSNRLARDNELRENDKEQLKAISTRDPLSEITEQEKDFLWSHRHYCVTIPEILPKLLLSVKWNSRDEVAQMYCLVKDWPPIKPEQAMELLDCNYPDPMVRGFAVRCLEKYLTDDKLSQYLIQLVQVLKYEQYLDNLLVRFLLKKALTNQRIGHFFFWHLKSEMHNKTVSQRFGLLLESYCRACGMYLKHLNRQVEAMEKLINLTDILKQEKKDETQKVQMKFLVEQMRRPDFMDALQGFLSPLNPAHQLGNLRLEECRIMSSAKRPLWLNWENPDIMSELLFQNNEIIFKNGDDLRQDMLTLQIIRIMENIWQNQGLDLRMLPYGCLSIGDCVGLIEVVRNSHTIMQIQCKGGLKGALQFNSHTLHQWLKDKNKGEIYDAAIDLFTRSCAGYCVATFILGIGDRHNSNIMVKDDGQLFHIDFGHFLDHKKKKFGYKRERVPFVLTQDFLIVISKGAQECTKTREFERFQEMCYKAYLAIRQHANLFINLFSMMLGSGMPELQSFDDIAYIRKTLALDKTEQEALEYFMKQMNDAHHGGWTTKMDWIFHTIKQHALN
Chain of PI3KA (P27986 whole entry partner): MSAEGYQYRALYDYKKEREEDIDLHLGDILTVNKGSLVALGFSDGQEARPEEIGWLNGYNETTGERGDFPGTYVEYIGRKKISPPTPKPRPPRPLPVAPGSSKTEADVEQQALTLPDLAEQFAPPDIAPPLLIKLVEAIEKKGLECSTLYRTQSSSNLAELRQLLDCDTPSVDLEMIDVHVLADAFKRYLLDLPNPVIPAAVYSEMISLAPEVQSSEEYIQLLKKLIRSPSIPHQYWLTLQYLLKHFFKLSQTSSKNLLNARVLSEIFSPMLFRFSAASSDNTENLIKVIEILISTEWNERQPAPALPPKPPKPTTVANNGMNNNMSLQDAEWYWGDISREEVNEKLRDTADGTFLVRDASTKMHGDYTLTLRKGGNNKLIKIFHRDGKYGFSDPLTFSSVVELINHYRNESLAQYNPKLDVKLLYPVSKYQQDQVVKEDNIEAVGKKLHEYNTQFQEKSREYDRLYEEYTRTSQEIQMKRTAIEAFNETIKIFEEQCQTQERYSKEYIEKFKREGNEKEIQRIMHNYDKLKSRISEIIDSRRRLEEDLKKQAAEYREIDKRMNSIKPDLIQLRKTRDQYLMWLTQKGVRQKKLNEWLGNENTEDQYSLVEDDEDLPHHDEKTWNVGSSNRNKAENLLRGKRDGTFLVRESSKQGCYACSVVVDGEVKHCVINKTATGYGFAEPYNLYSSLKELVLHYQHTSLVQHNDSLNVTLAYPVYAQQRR
Chain of ROCK1 (Q13464 whole entry): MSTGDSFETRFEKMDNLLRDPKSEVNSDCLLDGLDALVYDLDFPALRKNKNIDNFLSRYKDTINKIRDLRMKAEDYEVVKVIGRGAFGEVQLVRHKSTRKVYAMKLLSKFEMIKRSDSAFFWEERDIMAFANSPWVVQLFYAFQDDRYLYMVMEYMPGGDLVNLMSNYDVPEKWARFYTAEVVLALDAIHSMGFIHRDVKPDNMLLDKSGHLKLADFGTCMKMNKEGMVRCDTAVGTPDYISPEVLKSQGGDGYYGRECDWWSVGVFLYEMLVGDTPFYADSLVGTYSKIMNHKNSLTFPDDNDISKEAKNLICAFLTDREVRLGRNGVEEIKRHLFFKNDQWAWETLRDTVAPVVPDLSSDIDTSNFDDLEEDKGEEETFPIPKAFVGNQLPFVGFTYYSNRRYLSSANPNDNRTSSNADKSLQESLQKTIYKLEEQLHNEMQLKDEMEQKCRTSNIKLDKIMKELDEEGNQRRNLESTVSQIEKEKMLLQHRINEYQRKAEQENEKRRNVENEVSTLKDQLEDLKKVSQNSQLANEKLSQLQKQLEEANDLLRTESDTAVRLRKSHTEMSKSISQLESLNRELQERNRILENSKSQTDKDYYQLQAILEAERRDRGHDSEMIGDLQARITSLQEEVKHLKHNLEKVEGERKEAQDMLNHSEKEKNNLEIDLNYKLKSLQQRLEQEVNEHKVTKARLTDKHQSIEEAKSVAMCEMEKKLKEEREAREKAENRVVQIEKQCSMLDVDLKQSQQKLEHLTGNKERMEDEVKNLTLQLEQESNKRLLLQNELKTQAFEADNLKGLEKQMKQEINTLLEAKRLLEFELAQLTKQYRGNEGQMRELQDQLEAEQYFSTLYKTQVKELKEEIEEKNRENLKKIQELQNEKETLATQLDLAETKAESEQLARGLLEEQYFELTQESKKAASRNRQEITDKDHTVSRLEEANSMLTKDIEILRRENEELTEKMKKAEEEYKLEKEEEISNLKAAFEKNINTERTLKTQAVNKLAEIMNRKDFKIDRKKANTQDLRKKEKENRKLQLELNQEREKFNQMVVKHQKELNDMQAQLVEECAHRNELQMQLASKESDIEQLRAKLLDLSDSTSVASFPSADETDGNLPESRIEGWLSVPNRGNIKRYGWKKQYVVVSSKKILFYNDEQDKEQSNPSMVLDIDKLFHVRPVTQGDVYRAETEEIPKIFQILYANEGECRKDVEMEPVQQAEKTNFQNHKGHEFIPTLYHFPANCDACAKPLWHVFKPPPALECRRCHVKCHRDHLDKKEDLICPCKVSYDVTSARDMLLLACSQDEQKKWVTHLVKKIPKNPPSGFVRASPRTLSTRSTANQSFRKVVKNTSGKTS

SMILES | PFI (ChromlogD assay) | IC50 (BTK) [nM] | IC50 (SYK) [nM] | solubility kinetic at 1 h [1] [µM] | IC50 (IKK1) [nM] | IC50 (JAK2) [nM] | IC50 (PI3KA) [nM] | EC50 [2] [nM] | IC50 (ROCK1) [nM]
O=S1(=O)Cc2ccc(Nc3nccc(-c4ccc(F)cc4)n3)cc2C1 [NEU-0001142] | 7.11 | 20000 | 501 | 1 (≈ 0.355 µg/mL) | 631 | 50.1 | > 25100 | 20 | > 25100
CN(C)Cc1ccc(-c2[nH]c3ncc(C#N)cc3c2-c2ccccc2)cc1 [NEU-0001206] | 7.88 | 316 | 251 | 17 (≈ 5.99 µg/mL) | > 25100 | 501 | > 25100 | 100 | 12600
CCCCc1nc(Nc2cccc(C)c2)c2c(=O)[nH]ccc2n1 [NEU-0001191] | 8.54 | > 25100 | 2510 | 22 (≈ 6.78 µg/mL) | > 25100 | 251 | > 25100 | 79.4 | > 25100
Cn1cc(-c2cnc3[nH]cc(-c4cccc(C#N)c4)c3c2)cn1 [NEU-0001207] | 7.84 | > 25100 | 3160 | 12 (≈ 3.59 µg/mL) | 158 | 794 | 3980 | 100 | 794
O=C(Nc1ccc(-c2ccnc3[nH]ccc23)s1)C1(Cc2ccccc2)CCCNC1 (stereo not drawn) [NEU-0001240] | 7.26 | 794 | 20000 | 107 (≈ 44.6 µg/mL) | 1580 | 501 | > 25100 | 0.794 | 6.31
Cc1cc(Nc2cc(C3CC3)[nH]n2)nc(N2CCCCC2)n1 [NEU-0001127] | 6.13 | 5010 | 1000 | 265 (≈ 79.1 µg/mL) | 20000 | 398 | > 25100 | 31.6 | 20000
CCCNc1nc(Nc2cnn(C)c2)c2c(=O)[nH]ccc2n1 [NEU-0001187] | 5.43 | 200 | 63.1 | 252 (≈ 75.4 µg/mL) | 1580 | 3.98 | > 25100 | 79.4 | 1260
